For series [1] the following is noted: cited from earlier work.
For series [2], the target named is T1, HTR1B (Homo sapiens, UniProt P28222).
T1 construct: expressed in transfected cells
The experiment in a line: Hit Hunter cAMP assay, HTR1B agonist mode. The class given is cell-based.
Experimental: Methods—cAMP: Activation of HTR1B and GRM2, among other targets, was determined using the Hit Hunter® cAMP assay. The assay monitors the activation of a GPCR via Gi and Gs secondary messenger signaling, using β-Gal as a functional reporter.
To determine agonistic activity at Gi/Gs, cells were expanded from freezer stocks, seeded into multi-well plates, and incubated at 37° C. prior to addition of a test compound. To determine Gi/Gs agonism, media was aspirated from cells and replaced with 15 μL 2:1 HBSS/10 mM HEPES:cAMP XS+Ab reagent. Concentrated (4×) test compound in assay buffer was added to cells and incubated at 37° C. or room temperature for 30 or 60 minutes. For Gi agonist activation, cells were incubated with EC80 forskolin in addition to a test compound. Vehicle concentration was 1%.
For Gs agonist mode assays, percentage activity was calculated using the following formula: % Activity=100%×(mean RLU of test sample−mean RLU of vehicle control)/(mean RLU of MAX control−mean RLU of vehicle control).
For Gi agonist mode assays, percentage activity was calculated using the following formula: % Activity=100%×(1−(mean RLU of test sample−mean RLU of MAX control)/(mean RLU of vehicle control−mean RLU of MAX control)).

Series [3] concerns the target T2, serotonin receptor 2B (HTR2B) (Homo sapiens, UniProt P41595).
T2 construct: expressed in transfected cells
The experiment in a line: Calcium No Wash Plus calcium mobilization assay, HTR2B antagonist mode. The class given is cell-based. In general terms: A change in cytosolic calcium serves as a functional read-out for many receptors and channels.
Experimental: Methods—Calcium Mobilization: GPCR activity of serotonin receptor 2B (HTR2B), among others, was measured using the Calcium No Wash^Plus assay, which monitors calcium mobilization in cell lines expressing Gq-coupled GPCRs by loading a calcium-sensitive dye into cells.
Cell lines were expanded from freezer stocks and seeded into multi-well microplates. Then, the plates were incubated at 37° C. for an appropriate amount of time and loaded with Dye Loading buffer. To determine compound agonist activity, cells were incubated with the sample to induce a response, and HBSS/20 mM Hepes was added using a FLIPR Tetra (MDS). Activity was measured on a FLIPR Tetra. Calcium mobilization was monitored for 2 minutes.
To determine compound antagonist activity, cells were pre-incubated with the sample followed by an post-incubation administration of the compound with 3×EC80 agonist using FLIPR. Compound antagonist activity was measured on a FLIPR Tetra (MDS) and calcium mobilization was monitored for 2 minutes.
Compound activity was analyzed using CBIS data analysis suite (ChemInnovation, CA). For agonist mode assays, percentage activity was calculated using the following formula: % Activity=100%×(mean RFU of test sample−mean RFU of vehicle control)/(mean MAX RFU control ligand −mean RFU of vehicle control). […]

For series [4], the target named is T3, DAT (Homo sapiens, UniProt Q01959).
T3 construct: expressed in transfected cells
Put plainly: Neurotransmitter Transporter Uptake Assay, DAT blocker mode. The class given is cell-based.

For series [5], the target named is T4, NET (Homo sapiens, UniProt P23975).
T4 construct: expressed in transfected cells
The experiment in a line: Neurotransmitter Transporter Uptake Assay, NET blocker mode. Format: cell-based. The procedure:
Methods—Monoamine Transporter Assay: Neurotransmitter uptake via transporters was measured using the Neurotransmitter Transporter Uptake Assay Kit from Molecular Devices. Dopamine, norepinephrine or serotonin transporter activity in cells was detected using a homogeneous fluorescence based assay. Increased intracellular fluorescence intensity following uptake of biogenic amine neurotransmitters via transporters is measured and can be run in a kinetic or endpoint mode.
To determine percentage inhibition of neurotransmitter uptake via transporter, cell lines were expanded from freezer stocks, seeded into a multi-well microplate, and incubated at 37° C. Then, the compound was administered and the mix was incubated again. Following compound incubation, dye was added to the wells and the plate was re-incubated. Microplates were then transferred to a PerkinElmer Envision™ instrument for fluorescence signal detection.
Compound activity was analyzed using CBIS data analysis (ChemInnovation, CA). For blocker mode assays, percentage inhibition was calculated using the following formula: % Inhibition=100%×(1−(mean RLU of test sample−mean RLU of vehicle control)/(mean RLU of positive control−mean RLU of vehicle control)).

Series [6] concerns the target T5, nicotinic acetylcholine receptor nAChR (a4/b2) (Homo sapiens, UniProt P17787+P43681).
T5 construct: expressed in transfected cells
The experiment in a line: FLIPR Membrane Potential ion channel assay, nAChR (a4/b2) blocker. The class given is cell-based. The following applies: read-out: EC50/IC50. The procedure:
Methods—Ion Channel Assay: Membrane potential changes were measured using the FLIPR® Membrane potential Assay Kit. A fluorescent indicator dye in combination with a quencher is used to reflect real-time membrane potential changes associated with ion channel activation and ion transporter proteins.
To determine agonist and antagonist activity, cell lines were expanded from freezer stocks, seeded into multi-well microplates, and incubated at 37° C. Cells were then loaded with dye and incubated again.
For agonist determination, cells were incubated with the sample a different dilutions to induce a response. For antagonist determination, cells were pre-incubated with the sample at different dilutions. Following dye administration, the sample was added to the cells in the presence of EC80 agonist and then re-incubated at room temperature in the dark.
Compound activity was analyzed using CBIS data analysis suite (ChemInnovation, CA). For agonist mode assays, percentage activity was calculated using the following formula: % Activity=100%×(mean RLU of test sample−mean RLU of vehicle control)/(mean MAX control ligand−mean RLU of vehicle control).
For antagonist mode assays, percentage inhibition was calculated using the following formula: % Inhibition=100%×(1−(mean RLU of test sample−mean RLU of vehicle control)/(mean RLU of EC80 control−mean RLU of vehicle control)).

The target in series [7] is CYP2D6 (Homo sapiens, UniProt P10635). The following applies: cited from earlier work.
For series [8] the following is noted: cited from earlier work. This is another data set of the same source.

T3 sequence (Q01959 whole entry, species assumed): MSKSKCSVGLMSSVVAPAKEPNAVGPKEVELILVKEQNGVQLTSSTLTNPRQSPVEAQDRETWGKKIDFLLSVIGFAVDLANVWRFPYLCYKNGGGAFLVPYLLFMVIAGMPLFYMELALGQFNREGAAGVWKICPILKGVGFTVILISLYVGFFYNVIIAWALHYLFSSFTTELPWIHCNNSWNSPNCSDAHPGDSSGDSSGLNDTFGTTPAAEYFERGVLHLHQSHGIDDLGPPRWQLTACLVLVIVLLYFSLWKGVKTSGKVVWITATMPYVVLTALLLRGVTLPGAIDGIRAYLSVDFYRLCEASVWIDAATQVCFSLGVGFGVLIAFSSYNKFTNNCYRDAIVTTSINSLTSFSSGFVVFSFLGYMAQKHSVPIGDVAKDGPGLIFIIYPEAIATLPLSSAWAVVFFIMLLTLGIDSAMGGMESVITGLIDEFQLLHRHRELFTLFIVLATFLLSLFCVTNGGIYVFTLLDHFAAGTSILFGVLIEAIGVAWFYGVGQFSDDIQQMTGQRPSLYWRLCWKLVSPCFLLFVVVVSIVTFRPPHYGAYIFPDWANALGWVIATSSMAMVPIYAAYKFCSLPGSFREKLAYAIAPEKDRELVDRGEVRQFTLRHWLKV
T5 sequence (P43681 29-627 limits assumed): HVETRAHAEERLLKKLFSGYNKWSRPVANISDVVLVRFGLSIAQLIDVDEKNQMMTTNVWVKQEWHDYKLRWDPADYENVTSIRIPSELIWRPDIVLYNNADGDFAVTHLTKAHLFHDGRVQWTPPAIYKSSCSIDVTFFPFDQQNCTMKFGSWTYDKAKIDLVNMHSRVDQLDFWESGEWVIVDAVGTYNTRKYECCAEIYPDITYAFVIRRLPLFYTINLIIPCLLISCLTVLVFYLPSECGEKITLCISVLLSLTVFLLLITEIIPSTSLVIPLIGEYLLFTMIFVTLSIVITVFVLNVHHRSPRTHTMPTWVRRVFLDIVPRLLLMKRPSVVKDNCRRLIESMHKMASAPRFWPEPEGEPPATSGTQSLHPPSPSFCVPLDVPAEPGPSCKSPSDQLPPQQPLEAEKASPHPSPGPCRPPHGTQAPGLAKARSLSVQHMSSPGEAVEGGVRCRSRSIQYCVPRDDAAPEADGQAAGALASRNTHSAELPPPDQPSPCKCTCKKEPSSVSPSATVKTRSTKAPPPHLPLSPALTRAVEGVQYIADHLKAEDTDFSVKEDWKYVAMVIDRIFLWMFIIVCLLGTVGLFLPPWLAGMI
T5 sequence (P17787 26-502): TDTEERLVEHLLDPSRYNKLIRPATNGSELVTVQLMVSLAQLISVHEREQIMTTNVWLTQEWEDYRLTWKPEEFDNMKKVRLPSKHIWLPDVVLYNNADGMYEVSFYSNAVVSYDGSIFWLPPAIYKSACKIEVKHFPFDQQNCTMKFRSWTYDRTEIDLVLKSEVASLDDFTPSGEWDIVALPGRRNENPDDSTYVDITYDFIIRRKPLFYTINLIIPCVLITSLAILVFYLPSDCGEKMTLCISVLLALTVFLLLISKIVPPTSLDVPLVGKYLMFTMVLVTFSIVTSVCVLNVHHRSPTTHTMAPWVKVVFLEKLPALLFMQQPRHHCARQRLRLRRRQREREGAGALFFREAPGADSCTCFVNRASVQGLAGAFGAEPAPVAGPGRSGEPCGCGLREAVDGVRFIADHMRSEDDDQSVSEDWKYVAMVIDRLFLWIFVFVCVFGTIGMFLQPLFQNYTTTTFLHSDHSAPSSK
T1 sequence (P28222 whole entry, species assumed): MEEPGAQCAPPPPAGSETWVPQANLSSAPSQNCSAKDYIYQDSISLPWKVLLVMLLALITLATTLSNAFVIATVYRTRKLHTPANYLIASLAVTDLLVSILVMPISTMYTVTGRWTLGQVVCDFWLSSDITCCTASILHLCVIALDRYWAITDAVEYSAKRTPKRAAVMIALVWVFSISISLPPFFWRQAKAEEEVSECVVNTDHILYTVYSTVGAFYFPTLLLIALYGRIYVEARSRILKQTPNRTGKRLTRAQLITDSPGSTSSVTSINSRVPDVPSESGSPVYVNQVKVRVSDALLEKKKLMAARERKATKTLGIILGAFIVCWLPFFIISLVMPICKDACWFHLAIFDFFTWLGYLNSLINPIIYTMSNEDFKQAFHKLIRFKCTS
T4 sequence (P23975 whole entry): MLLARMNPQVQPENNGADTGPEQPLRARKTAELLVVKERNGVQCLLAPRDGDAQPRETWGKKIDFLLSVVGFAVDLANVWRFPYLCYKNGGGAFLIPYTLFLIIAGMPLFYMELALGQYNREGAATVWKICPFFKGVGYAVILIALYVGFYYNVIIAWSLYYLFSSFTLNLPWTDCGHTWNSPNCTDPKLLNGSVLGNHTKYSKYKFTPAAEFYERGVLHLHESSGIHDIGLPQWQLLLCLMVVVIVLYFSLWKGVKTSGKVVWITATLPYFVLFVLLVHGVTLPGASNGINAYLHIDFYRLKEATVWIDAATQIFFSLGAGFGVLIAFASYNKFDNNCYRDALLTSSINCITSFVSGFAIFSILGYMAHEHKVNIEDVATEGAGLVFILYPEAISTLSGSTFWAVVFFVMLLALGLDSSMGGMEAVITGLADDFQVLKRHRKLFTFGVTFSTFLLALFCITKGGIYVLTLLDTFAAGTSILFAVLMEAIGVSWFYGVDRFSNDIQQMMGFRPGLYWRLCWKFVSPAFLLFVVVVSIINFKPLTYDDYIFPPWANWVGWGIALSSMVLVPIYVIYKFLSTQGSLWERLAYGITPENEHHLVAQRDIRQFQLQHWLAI
T2 sequence (P41595 whole entry, species assumed): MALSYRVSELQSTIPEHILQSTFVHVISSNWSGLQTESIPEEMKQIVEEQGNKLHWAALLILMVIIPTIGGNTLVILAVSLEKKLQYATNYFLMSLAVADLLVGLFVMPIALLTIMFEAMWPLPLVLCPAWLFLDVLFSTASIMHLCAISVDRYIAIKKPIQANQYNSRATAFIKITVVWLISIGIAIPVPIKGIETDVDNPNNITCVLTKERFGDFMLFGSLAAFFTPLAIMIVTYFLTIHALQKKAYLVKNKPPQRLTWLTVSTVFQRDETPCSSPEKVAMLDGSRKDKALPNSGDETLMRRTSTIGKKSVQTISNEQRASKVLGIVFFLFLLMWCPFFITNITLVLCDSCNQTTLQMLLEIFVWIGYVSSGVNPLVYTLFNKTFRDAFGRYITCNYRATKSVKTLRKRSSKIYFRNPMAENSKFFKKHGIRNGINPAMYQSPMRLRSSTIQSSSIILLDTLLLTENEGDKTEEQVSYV
Sequence of CYP2D6 (P10635 whole entry): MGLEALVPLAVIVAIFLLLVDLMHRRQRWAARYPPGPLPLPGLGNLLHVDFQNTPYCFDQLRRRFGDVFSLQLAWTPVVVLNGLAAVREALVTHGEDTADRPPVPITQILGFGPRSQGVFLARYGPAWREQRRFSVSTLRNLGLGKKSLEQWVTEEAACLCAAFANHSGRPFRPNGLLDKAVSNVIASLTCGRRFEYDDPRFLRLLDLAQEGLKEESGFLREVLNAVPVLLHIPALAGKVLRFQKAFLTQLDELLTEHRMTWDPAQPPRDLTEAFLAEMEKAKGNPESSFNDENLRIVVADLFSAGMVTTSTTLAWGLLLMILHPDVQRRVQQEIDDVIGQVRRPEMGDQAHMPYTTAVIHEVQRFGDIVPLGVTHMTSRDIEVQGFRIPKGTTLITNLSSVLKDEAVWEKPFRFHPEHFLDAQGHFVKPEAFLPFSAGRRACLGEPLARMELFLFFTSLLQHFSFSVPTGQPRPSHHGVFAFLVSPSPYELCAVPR

With `[2H]C1([2H])Oc2ccc(CC(C)NC)cc2O1` (stereo not drawn) [d2-MDMA], the interoceptive effects entry in series [1] (deuterium substitution at the methylenedioxy ring moiety) is recorded as “does not impact MDMA's interoceptive effects”. For the same compound, the hyperthermic effects result in series [1] (in vivo) is “reduced potential for producing hyperthermic effects”.

Turning to `CNC(C)Cc1ccc2c(c1)OCO2` (stereo not drawn) [MDMA, 3,4-methylenedioxymethamphetamine], the 50% effective concentration (EC50) (commonly the midpoint of the concentration-response curve) in series [2] was found to be 4.71 µM. For the same compound, the IC50 is 5.34 µM in series [3], 9.84 µM in series [4], 2.49 µM in series [5] and 3.19 µM in series [6]. In addition, the CYP2D6 inhibition entry in series [7] is “inhibit CYP2D6”. Moreover, the “efficacy in severe PTSD” value in series [8] (MDMA-assisted therapy compared to therapy with inactive placebo) is “highly efficacious”. Moreover, the safety and tolerability result in series [8] (individuals with severe PTSD, even with comorbidities) was “safe and well-tolerated”.

`[2H]C([2H])([2H])NC(C)Cc1ccc2c(c1)OCO2` (stereo not drawn) [MDMA-d3]: the EC50 in series [2] stood at 2.99 µM. Also, the IC50 in series [3] is 4.2 µM; in series [4], 7.57 µM; in series [5], 3.87 µM; in series [6] it was 4.38 µM.

(Values after patent publication US12221428B2, “Use of deuterated empathogens as therapeutic agents” (priority 2021, dated 2025).)
